Test results as given in article PMC12344683, “N-alkyl and N-benzyl indoles are anti-SARS-CoV-2 agents and nsp13 inhibitors” (Journal of Enzyme Inhibition and Medicinal Chemistry, 2025).

How the values were obtained:
SARS-CoV-2 nsp13 [1] = biological target: T1, SARS-CoV-2 nsp13 (Severe acute respiratory syndrome coronavirus 2, UniProt P0DTD1); assay: SARS-CoV-2 nsp13 unwinding-associated activity (fluorescence, BSA-TCEP); type: biochemical; conditions: for IC50: SARS-CoV-2 nsp13-associated unwinding activity, from dose-response curves; for remaining activity at 30 µM: read-out: Percentage of enzymatic residual activity (unwinding)
SARS-CoV-2 nsp13 [2] = biological target: T1, SARS-CoV-2 nsp13; assay: SARS-CoV-2 nsp13 ATPase-associated activity (Biomol Green, BSA-TCEP); type: biochemical; conditions: for IC50: SARS-CoV-2 nsp13-associated ATPase activity, from dose-response curves; for remaining activity at 30 µM: read-out: Percentage of enzymatic residual activity (ATPase)
[3] = Cellular toxicity assay (GFP signal as viability); type: cell-based; conditions: African green monkey; Vero cells; read-out: CC50, concentration required to reduce Vero cells viability by 50%
Procedure: Vero E6-green fluorescent protein (GFP) cells (Janssen Pharmaceutical were maintained in Dulbecco’s modified Eagle’s medium (DMEM, Gibco) supplemented with 10% v/v foetal beef serum (FBS, Gibco), 0.075% Sodium Bicarbonate (7.5% solution, Gibco) and 1X Pen-strep (Euroclone) and kept under 5% CO2 on 37 ◦C. The cells were seeded at 10 000 cells/well in 96-well black cell-treated plates (PerkinElmer). The following day, cells were incubated with the control compounds at different concentrations. Compound was dissolved in 0.1% DMSO. Seventy-two hours post infection the GPF signal, as direct index of cellular viability, was quantified by measuring the total-well fluorescence with a Victor 3 multiplate reader (PerkinElmer) set to excitation and emission wavelengths of 485 and 535 nm, respectively.
The percentage of induced cytopathic effects (CPE) was calculated considering the mock as 100% of cell viability, and the readout from empty wells as blank. The compound half-maximal cytopathic concentration (CC50), was determined via non-linear regression by using on Prism 9 v. 9.4.1 software (GraphPad) the built-in function dose-response inhibition, log-concentration-normalized response. Experimental points represent the average and standard deviation of at least two sets of independent triplicates.

[4] = Activity in enzyme assay IC50 Unwinding BSA-TCEP
[5] = Activity in enzyme assay IC50 ATPase BSA-TCEP
[6] = read-out: Activity in enzyme assay IC50 Unwinding BSA-TCEP
[7] = read-out: Activity in enzyme assay IC50 ATPase BSA-TCEP

## O=C(O)/C(O)=C/C(=O)c1cn(Cc2ccc(F)cc2)c2ccccc12 [7d, (Z)-4-(1-(4-fluorobenzyl)-1H-indol-3-yl)-2-hydroxy-4-oxobut-2-enoic acid]
SARS-CoV-2 nsp13 [1]; [4]
  IC50: > 30 µM
SARS-CoV-2 nsp13 [1]
  remaining activity at 30 µM: 50%
SARS-CoV-2 nsp13 [2]; [5]
  IC50: > 30 µM
SARS-CoV-2 nsp13 [2]
  remaining activity at 30 µM: 70%

## O=C(O)/C(O)=C/C(=O)c1cn(Cc2ccc(OC(F)(F)F)cc2)c2ccccc12 [7e]
SARS-CoV-2 nsp13 [1]; [4]
  IC50: 22.2 ± 1.37 µM
SARS-CoV-2 nsp13 [2]; [5]
  IC50: 20.3 µM

## O=C(O)/C(O)=C/C(=O)c1cn(Cc2ccccc2)c2ccccc12 [7j, (Z)-4-(1-benzyl-1H-indol-3-yl)-2-hydroxy-4-oxobut-2-enoic acid]
SARS-CoV-2 nsp13 [1]; [4]
  IC50: 30 ± 1.5 µM
SARS-CoV-2 nsp13 [2]; [5]
  IC50: 10.3 ± 1.75 µM

## CCOC(=O)/C(O)=C/C(=O)c1cn(Cc2ccc(OC)cc2)c2ccccc12 [8a]
SARS-CoV-2 nsp13 [1]; [4]
  IC50: 13.1 ± 1.78 µM
SARS-CoV-2 nsp13 [2]; [5]
  IC50: 8.06 ± 1.78 µM

## CCOC(=O)/C(O)=C/C(=O)c1cn(Cc2ccc(C)cc2)c2ccccc12 [8b]
SARS-CoV-2 nsp13 [1]; [4]
  IC50: 13.2 ± 2.76 µM
SARS-CoV-2 nsp13 [2]; [5]
  IC50: 7.01 ± 0.05 µM

## CCOC(=O)/C(O)=C/C(=O)c1cn(Cc2ccc(C(C)C)cc2)c2ccccc12 [8c]
SARS-CoV-2 nsp13 [1]; [4]
  IC50: 9.66 ± 2.89 µM
SARS-CoV-2 nsp13 [2]; [5]
  IC50: 9.64 ± 2.27 µM

## CCOC(=O)/C(O)=C/C(=O)c1cn(Cc2ccc(OC(F)(F)F)cc2)c2ccccc12 [8e]
SARS-CoV-2 nsp13 [1]; [4]
  IC50: 11.3 ± 0.65 µM
SARS-CoV-2 nsp13 [2]; [5]
  IC50: 2.29 ± 0.02 µM

## CCOC(=O)/C(O)=C/C(=O)c1cn(Cc2ccccc2)c2ccccc12 [8j, Ethyl (Z)-4-(1-benzyl-1H-indol-3-yl)-2-hydroxy-4-oxobut-2-enoate]
SARS-CoV-2 nsp13 [1]; [4]
  IC50: 26 ± 0.89 µM
SARS-CoV-2 nsp13 [2]; [5]
  IC50: 14.5 ± 1.49 µM

## C/C=C/Cn1cc(/C=C/C(=O)/C=C(\O)C(=O)O)c2ccccc21 [9a, (2Z,5E)-6-(1-((E)-but-2-en-1-yl)-1H-indol-3-yl)-2-hydroxy-4-oxohexa-2,5-dienoic acid]
SARS-CoV-2 nsp13 [1]; [6]
  IC50: 19.4 ± 3.7 µM
SARS-CoV-2 nsp13 [2]; [7]
  IC50: > 30 µM
SARS-CoV-2 nsp13 [2]; measured at 30 µM
  remaining activity at 30 µM: 70%

## C=C(C)Cn1cc(/C=C/C(=O)/C=C(\O)C(=O)O)c2ccccc21 [9b, (2Z,5E)-2-hydroxy-6-(1-(2-methylallyl)-1H-indol-3-yl)-4-oxohexa-2,5-dienoic acid]
SARS-CoV-2 nsp13 [1]; [6]
  IC50: > 30 µM
SARS-CoV-2 nsp13 [1]; measured at 30 µM
  remaining activity at 30 µM: 72%
SARS-CoV-2 nsp13 [2]; [7]
  IC50: > 30 µM
SARS-CoV-2 nsp13 [2]; measured at 30 µM
  remaining activity at 30 µM: 68%

## CCn1cc(/C=C/C(=O)/C=C(\O)C(=O)O)c2ccccc21 [9d]
SARS-CoV-2 nsp13 [1]; [6]
  IC50: 11.8 ± 4.03 µM
SARS-CoV-2 nsp13 [2]; [7]
  IC50: 8.32 ± 0.08 µM

## CCCCn1cc(/C=C/C(=O)/C=C(\O)C(=O)O)c2ccccc21 [9e, (2Z,5E)-6-(1-butyl-1H-indol-3-yl)-2-hydroxy-4-oxohexa-2,5-dienoic acid]
SARS-CoV-2 nsp13 [1]; measured at 30 µM
  remaining activity at 30 µM: 41%
SARS-CoV-2 nsp13 [2]; [7]
  IC50: > 30 µM
SARS-CoV-2 nsp13 [2]; measured at 30 µM
  remaining activity at 30 µM: 100%

## CC(C)CCn1cc(/C=C/C(=O)/C=C(\O)C(=O)O)c2ccccc21 [9f, (2Z,5E)-2-hydroxy-6-(1-isopentyl-1H-indol-3-yl)-4-oxohexa-2,5-dienoic acid]
SARS-CoV-2 nsp13 [1]; [6]
  IC50: 15.9 ± 0.59 µM
SARS-CoV-2 nsp13 [2]; [7]
  IC50: 23.1 ± 1.41 µM

## C/C=C/Cn1cc(/C=C/C(=O)/C=C(\O)C(=O)OCC)c2ccccc21 [10a, Ethyl (2Z,5E)-6-(1-((E)-but-2-en-1-yl)-1H-indol-3-yl)-2-hydroxy-4-oxohexa-2,5-dienoate]
SARS-CoV-2 nsp13 [1]; [6]
  IC50: 13.2 ± 1.86 µM
SARS-CoV-2 nsp13 [2]; [7]
  IC50: 8.79 ± 0.69 µM

## C=C(C)Cn1cc(/C=C/C(=O)/C=C(\O)C(=O)OCC)c2ccccc21 [10b, Ethyl (2Z,5E)-2-hydroxy-6-(1-(2-methylallyl)-1H-indol-3-yl)-4-oxohexa-2,5-dienoate]
SARS-CoV-2 nsp13 [1]; [6]
  IC50: 21.5 ± 0.23 µM
SARS-CoV-2 nsp13 [2]; [7]
  IC50: 7.26 ± 0.65 µM

## CCOC(=O)/C(O)=C/C(=O)/C=C/c1cn(C=C(C)C)c2ccccc12 [10c, Ethyl (2Z,5E)-2-hydroxy-6-(1-(2-methylprop-1-en-1-yl)-1H-indol-3-yl)-4-oxohexa-2,5-dienoate]
SARS-CoV-2 nsp13 [1]; [6]
  IC50: 19.3 ± 0.76 µM
SARS-CoV-2 nsp13 [2]; [7]
  IC50: 4.93 ± 1.4 µM

## CCOC(=O)/C(O)=C/C(=O)/C=C/c1cn(CC)c2ccccc12 [10d]
SARS-CoV-2 nsp13 [1]; [6]
  IC50: 11.8 ± 4.03 µM
SARS-CoV-2 nsp13 [2]; [7]
  IC50: 18.5 ± 0.65 µM

## CCCCn1cc(/C=C/C(=O)/C=C(\O)C(=O)OCC)c2ccccc21 [10e, Ethyl (2Z,5E)-6-(1-butyl-1H-indol-3-yl)-2-hydroxy-4-oxohexa-2,5-dienoate]
SARS-CoV-2 nsp13 [1]; [6]
  IC50: 14.8 ± 1.18 µM
SARS-CoV-2 nsp13 [2]; [7]
  IC50: 5.72 ± 1.63 µM

## CCOC(=O)/C(O)=C/C(=O)/C=C/c1cn(CCC(C)C)c2ccccc12 [10f, Ethyl (2Z,5E)-2-hydroxy-6-(1-isopentyl-1H-indol-3-yl)-4-oxohexa-2,5-dienoate]
SARS-CoV-2 nsp13 [1]; [6]
  IC50: 13.5 ± 0.25 µM
SARS-CoV-2 nsp13 [2]; [7]
  IC50: 6.27 ± 0.2 µM

## CC[C@@]1(O)C(=O)OCc2c1cc1n(c2=O)Cc2cc3ccccc3nc2-1 [Camptothecin, reference compound]
[3]
  CC50 at 72 h: 11.1 ± 0.16 µM
